Experiment [1] has as its target T1, hydroxymethyldihydropteridine pyrophosphokinase (HMPPS) (Escherichia coli, UniProt P26281).
T1 construct: obtained from an extract of E. coli; endogenous in cells; host or cells: E. coli extract; HMPPS separated from synthetase on Sephadex G-100 (method of Richey and Brown 1969)
Briefly: HMPPS assay: transfer of terminal phosphate of ATP-γ-P^32 to Pt. It is filed as biochemical, E. coli. The settings on record: read-out: IC50. The text has this:
(a) An assay for HMPPS was developed in which the transfer of the terminal phosphate of ATP-γ-P^32 to Pt could be monitored and correlated with the amount of inhibition of HMPPS by the compound under test.
The compound under test was incorporated into various formulations comprising metabolites and enzymes contained in test tubes, as indicated in TABLE 1.
II--a source of HMMP S, obtained from an extract of E. coli and separated from `synthetase` on Sephadex G-100, according to the method of Richey and Brown in J. Biol. Chem. 244, 1582-1592 (1969)
Control tubes 10 to 12 include a source of both HMPPS and synthetase, unlabelled ATP, 0.1M MgCl2.6H2 O and labelled pAB.
Tubes 1 to 9 containing the amounts of components shown in the Table, were filled up to 200 μl with distilled water, incubated for 60 minutes at 37° C. and then chilled on ice. Dextrose (20 μl containing 72.1 mg/ml) and hexokinase (5 μl containing 2000 units/ml) were added to the solution, which was then allowed to stand at room temperature for 15 minutes. `Darco-G-60` (Registered Trade Mark) (10 mg) was added to each tube and the contents mixed periodically for 10 minutes. The charcoal was removed through a "Millipore AP 250 2200" (Registered Trade Mark) filter and the filter was washed with three 10 ml portions of cold water. The Charcoal and the filter were then radioactively counted.
The radioactive count from the contents of tubes 2 and 3 was taken as the maximum count, since these tubes contained no test compound and thus gave 0% enzyme inhibition. The percentage inhibition produced by the contents of the remaining tubes could then be calculated by relating their radioactive count to the maximum, as determined above.

The subject of a further experiment is coccidiosis. Briefly: potentiating effect against coccidiosis. It is filed as in vivo. The settings on record: replacement of DMHP.

One may read the IC50 as the concentration at which inhibition is half-maximal.

T1 sequence (P26281 whole entry): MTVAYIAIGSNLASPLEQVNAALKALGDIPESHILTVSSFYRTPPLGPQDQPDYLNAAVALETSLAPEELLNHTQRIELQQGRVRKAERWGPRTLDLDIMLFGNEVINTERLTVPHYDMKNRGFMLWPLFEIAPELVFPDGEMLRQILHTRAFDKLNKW

Regarding `CC1=Nc2c(O)nc(N)nc2NC1(C)C` [R=Me, R^1=Me, R^2=Me, 2-Amino-4-hydroxy-6-methyl-7,7-dimethyl-7,8-dihydropteridine], the IC50 in experiment [1] came to 75 µM. Further, the “potentiating effect against coccidiosis” value in the experiment with coccidiosis was “noticeable, athough less marked potentiating effect”.

(Values after patent publication US4795639A, “Potentiating formulations” (priority 1971, dated 1989).)
